Reference: the NIST ThermoML archive (doi:10.1021/je034102r)

Assay: molar heat capacity at constant pressure
Conditions: 101.33 kPa, Liquid, heat bridge-scanning calorimeter

CCCCn1cc[n+](C)c1.F[P-](F)(F)(F)(F)F [1-butyl-3-methylimidazolium hexafluorophosphate]
Conditions	molar heat capacity at constant pressure [J/K/mol]
353.76 K	441.34
353.89 K	441.34
354.01 K	441.62
354.29 K	441.9
354.41 K	441.9
354.54 K	441.62
354.66 K	441.9
354.79 K	442.19
354.91 K	441.9
355.04 K	442.19
355.16 K	442.47
355.29 K	442.47
355.41 K	442.47
355.54 K	442.47
355.81 K	442.76
355.94 K	443.04
356.06 K	442.76
356.19 K	442.76
356.31 K	443.04
356.44 K	443.04
356.56 K	443.32
356.69 K	443.32
356.81 K	443.61
357.1 K	443.32
357.24 K	443.61
357.36 K	443.61
357.49 K	443.61
357.61 K	443.61
357.74 K	443.89
357.86 K	443.89
357.99 K	444.18
358.12 K	444.18
358.24 K	444.18
358.37 K	444.18
358.64 K	444.46
358.76 K	444.75
358.89 K	444.46
359.02 K	444.75
359.14 K	444.75
359.27 K	444.75
359.39 K	445.03
359.52 K	445.03
359.64 K	445.31
359.93 K	445.31
360.05 K	445.31
360.18 K	445.6
360.3 K	445.6
360.43 K	445.88
360.55 K	445.88
360.68 K	445.88
360.8 K	446.17
360.93 K	446.17
361.05 K	446.17
361.18 K	446.45
361.45 K	446.45
361.58 K	446.45
361.7 K	446.45
361.83 K	446.45
361.95 K	446.73
362.08 K	446.73
362.2 K	447.02
362.33 K	447.02
362.45 K	447.02
362.73 K	447.02
362.86 K	447.02
362.98 K	447.3
363.12 K	447.3
363.25 K	447.3
363.37 K	447.3
363.5 K	447.59
363.62 K	447.59
363.75 K	447.87
363.87 K	447.59
364 K	447.87
364.27 K	447.87
364.4 K	447.87
364.52 K	447.87
364.65 K	448.16
364.77 K	448.16
364.9 K	448.16
365.02 K	448.16
365.15 K	448.44
365.28 K	448.16
365.56 K	448.44
365.69 K	448.44
365.81 K	448.72
365.94 K	448.72
366.06 K	448.72
366.19 K	448.72
366.32 K	448.72
366.44 K	449.01
366.57 K	449.01
366.69 K	449.01
366.82 K	449.29
367.09 K	449.29
367.22 K	449.29
367.34 K	449.58
367.47 K	449.86
367.59 K	449.86
367.72 K	449.86
367.84 K	449.86
367.97 K	449.86
368.1 K	450.43
368.38 K	450.14
368.51 K	450.43
368.63 K	450.43
368.76 K	450.43
368.88 K	450.43
369.02 K	450.43
369.15 K	450.43
369.27 K	450.43
369.4 K	450.71
369.53 K	450.71
369.65 K	450.71
369.92 K	452.13
370.05 K	452.13
370.17 K	451.85
370.3 K	451.28
370.43 K	451.57
370.55 K	451.28
370.68 K	451.28
370.8 K	451.57
370.93 K	451.57
371.21 K	451.85
371.34 K	452.13
371.47 K	452.13
371.59 K	451.85
371.72 K	452.13
371.84 K	451.85
371.97 K	452.13
372.09 K	452.13
372.22 K	452.13
372.35 K	452.13
372.47 K	452.7
372.74 K	452.99
372.87 K	452.7
372.99 K	452.7
373.12 K	452.7
373.25 K	452.99
373.37 K	453.56
373.5 K	453.84
373.62 K	453.56
373.75 K	452.7
374.03 K	453.27
374.16 K	453.27
374.29 K	453.27
374.41 K	453.27
374.54 K	454.41
374.67 K	455.26
374.79 K	454.69
374.92 K	454.69
375.06 K	454.69
375.18 K	454.41
375.31 K	454.12
375.58 K	453.84
375.71 K	453.84
375.83 K	453.56
375.96 K	453.84
376.09 K	454.69
376.21 K	455.83
376.34 K	455.83
376.46 K	455.54
376.59 K	454.98
376.87 K	454.41
376.99 K	454.41
377.12 K	454.41
377.25 K	454.98
377.37 K	455.26
377.5 K	454.98
377.63 K	454.69
377.75 K	454.69
377.88 K	454.98
378 K	455.26
378.13 K	455.54
378.4 K	455.54
378.53 K	455.26
378.65 K	455.54
378.78 K	455.54
378.91 K	455.54
379.03 K	455.54
379.16 K	455.83
379.29 K	456.11
379.41 K	457.53
379.7 K	456.11
379.83 K	456.11
379.95 K	456.4
380.08 K	456.68
380.21 K	456.68
380.33 K	456.68
380.46 K	456.68
380.59 K	456.68
380.71 K	456.97
380.84 K	457.53
380.98 K	457.25
381.25 K	457.53
381.38 K	456.97
381.51 K	456.68
381.63 K	456.68
381.76 K	456.68
381.89 K	456.97
382.01 K	457.53
382.14 K	457.82
382.27 K	457.53
382.56 K	457.53
382.68 K	458.39
382.81 K	457.82
382.94 K	458.1
383.06 K	458.39
383.19 K	458.67
383.32 K	458.67
383.45 K	458.39
383.57 K	457.82
383.7 K	457.82
383.83 K	457.53
384.1 K	458.1
384.23 K	457.82
384.36 K	458.1
384.48 K	458.67
384.61 K	459.24
384.74 K	458.95
384.86 K	458.39
384.99 K	457.82
385.12 K	458.1
385.41 K	459.52
385.54 K	460.09
385.66 K	459.81
385.79 K	459.52
385.92 K	459.24
386.05 K	459.52
386.18 K	460.09
386.3 K	460.09
386.43 K	459.81
386.56 K	460.09
386.69 K	460.38
386.97 K	460.38
387.1 K	460.09
387.23 K	460.09
387.36 K	459.81
387.49 K	460.09
387.61 K	460.38
387.74 K	460.38
387.87 K	460.09
388 K	460.09
388.28 K	461.23
388.41 K	460.94
388.54 K	461.23
388.67 K	461.51
388.79 K	461.51
388.92 K	461.51
389.05 K	461.51
389.18 K	461.8
389.3 K	461.8
389.43 K	461.51
389.56 K	461.8
389.84 K	461.8
389.96 K	462.08
390.09 K	462.08
390.22 K	462.36
390.35 K	462.93
390.47 K	462.93
390.6 K	463.79
390.73 K	464.07
390.86 K	463.5
391.15 K	463.5
391.27 K	464.35
391.4 K	464.64
391.53 K	464.35
391.66 K	464.64
391.79 K	464.07
391.92 K	464.07
392.05 K	463.79
392.17 K	463.79
392.3 K	464.35
392.43 K	464.92
392.71 K	464.07
392.84 K	464.07
392.97 K	464.07
393.11 K	464.07
393.24 K	464.07
393.36 K	464.35
393.49 K	464.35
393.62 K	464.64
393.75 K	465.21
394.04 K	465.21
394.17 K	465.21
394.3 K	465.49
394.42 K	465.49
394.55 K	465.77
394.68 K	466.34
394.81 K	467.48
394.94 K	467.48
395.07 K	467.2
395.2 K	466.63
395.32 K	466.63
395.6 K	466.91
395.73 K	466.91
395.86 K	467.2
395.99 K	468.05
396.12 K	468.33
396.24 K	468.33
396.37 K	468.33
396.5 K	468.62
396.63 K	469.47
396.92 K	469.19
397.05 K	468.62
397.18 K	468.9
397.31 K	468.9
397.44 K	469.19
397.56 K	469.19
397.69 K	469.47
397.82 K	469.19
397.95 K	469.19
398.08 K	469.47
398.21 K	469.47
398.49 K	469.19
398.62 K	469.47
398.75 K	470.04
398.88 K	470.32
399.01 K	470.61
399.15 K	470.61
399.28 K	470.89
399.41 K	471.17
399.53 K	472.03
399.82 K	471.17
399.95 K	470.89
400.08 K	470.89
400.21 K	470.61
400.34 K	471.17
400.47 K	471.74
400.6 K	471.74
400.73 K	472.6
400.86 K	472.03
400.99 K	471.74
401.12 K	471.74
401.41 K	472.6
401.54 K	472.31
401.67 K	471.74
401.8 K	472.03
401.93 K	472.03
402.06 K	472.31
402.19 K	472.03
402.32 K	471.46
402.45 K	471.46
402.74 K	471.74
402.87 K	471.46
403 K	471.74
403.13 K	472.03
403.26 K	472.03
403.39 K	472.03
403.52 K	472.03
403.65 K	472.03
403.78 K	472.31
403.91 K	472.31
404.04 K	472.6
404.32 K	472.31
404.45 K	472.31
404.58 K	472.31
404.71 K	473.16
404.84 K	473.73
404.98 K	473.73
405.11 K	473.16
405.24 K	472.88
405.38 K	472.03
405.67 K	472.88
405.8 K	473.73
405.93 K	474.02
406.06 K	474.02
406.2 K	473.73
406.33 K	473.45
406.46 K	472.88
406.59 K	472.88
406.72 K	473.16
406.85 K	473.45
406.98 K	473.73
407.27 K	474.02
407.4 K	473.73
407.53 K	473.45
407.66 K	473.45
407.79 K	473.16
407.92 K	473.16
408.05 K	472.88
408.19 K	473.45
